Data: publication PMC7613515, “Reading and erasing of the phosphonium analogue of trimethyllysine by epigenetic proteins” (Communications Chemistry, 2022)

Molecular target: T1, KDM5APHD3 (JARID1A-PHD3, residues M1489–V1641) (Homo sapiens, UniProt P29375)
T1 construct: KDM5APHD3 (JARID1A-PHD3, residues M1489–V1641); made in house; host or cells: E. coli
T1 sequence (P29375 1489-1641): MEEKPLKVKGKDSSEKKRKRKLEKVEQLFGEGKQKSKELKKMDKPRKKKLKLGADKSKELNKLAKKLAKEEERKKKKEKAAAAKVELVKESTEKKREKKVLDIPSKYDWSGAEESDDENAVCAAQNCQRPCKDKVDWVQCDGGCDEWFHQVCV
Test: ITC, association of histone H3 peptides with KDM5APHD3
Type: binding
Settings: 25 °C, H3 1-10 peptide, Tris (50 mM), NaCl (20 mM), pH 7.5, from 3 to 5 experiments, ± SD
Description: We investigated the thermodynamics of association of the H3KP4me3 peptide with five representative human reader domains containing either a PHD zinc finger or TTD, i.e. KDM5APHD3 (JARID1A-PHD3, residues M1489–V1641)[10], TAF3PHD (R857–K924)[22], BPTFPHD (L2583–N2751)[23], SGF29TTD (R115–K293)[24] and KDM4ATTD (JMJD2A, Q897-P1011)[25], selected on the basis of their preference for binding Ν^ε-trimethyllysine over other (non)methylation marks (Kme0 < Kme1 < Kme2 < Kme3), and their domain and aromatic cage diversity. The recombinant readers were produced in E. coli following reported procedures. Isothermal titration calorimetric (ITC) analyses were used to determine the dissociation constant (Kd), the Gibbs free energy of binding (ΔG°), the enthalpy of binding (ΔH°), and the entropy of binding (ΔS°). […] (Table 1, Fig. 2, Supplementary Fig. 1).
The following purified reader domains: TAF3PHD (R857-K924), KDM5APHD3 (JARID1A, M1489-V1641), BPTFPHD (L2583-N2751), KDM4ATTD (JMJD2A, Q897-P1011) and SGF29TTD (R115-K293) were prepared as reported[10],[22]–[26]. The histone lysine demethylase were produced and purified to high purity via reported procedures KDM3A (JMJD1A, T515-S1317)[41], KDM4AJmjC[39] (JMJD2A, M1-L359), KDM4EJmjC (JMJD2E, M1–Q337)[34] and KDM7B[40] (PHF8, M37-N483 [NP_001171]). KDM5DJmjC was produced using an N-terminal hexa-His tagged KDM4D (KDM4DM1-L358) DNA construct, transformed into BL21(DE3) competent cells for recombinant protein production. Colonies were used to inoculate of LB media (50 mL) containing kanamycin (50 µg·mL^−1) and chloramphenicol (34 µg·mL^−1), which was placed in a 37 °C shaker overnight. The starter culture (10 mL) was used to inoculate TB media (6 × 1 L) containing kanamycin (50 µg·mL^−1) in 2 L baffled shaker flasks. After reaching an of OD600 of ~0.8, the temperature was reduced to 18 °C; at OD600 ~0.9 the cells were induced by the IPTG (0.5 mM) addition. After shaking overnight, the culture was centrifuged (5000 rpm, 10 mins), the media was decanted, and the cell pellet was suspended in Lysis Buffer [HEPES (50 mM), NaCl (500 mM), imidazole (20 mM), glycerol (5%) and TCEP (0.5 mM) in water (pH 7.4)]. The suspension was lysed by passaging through a high-pressure cell breaker (Avestin – EmulsiFlex-C5) for three rounds. The lysate was cleared by centrifugation (60 minutes, 36,000 × g, 4 °C), then loaded onto a Ni NTA gravity column. […]
ITC studies followed a reported procedure. […] Histone peptide titrations were performed with the same reader batches. Solutions of the reader in buffer (25–40 µM) and of the histone H3 peptide (350–600 µM) in buffer were prepared. […] Heats of dilution for histone peptides determined in control experiments were subtracted from the titration binding data. […]

Question: What does the source list for C[C@H](N)C(=O)N[C@@H](CCCNC(=N)N)C(=O)N[C@H](C(=O)N[C@@H](CCCC[P+](C)(C)C)C(=O)N[C@@H](CCC(N)=O)C(=O)N[C@H](C(=O)N[C@@H](C)C(=O)N[C@@H](CCCNC(=N)N)C(=O)N[C@@H](CCCCN)C(=O)N[C@@H](CO)C(N)=O)[C@@H](C)O)[C@@H](C)O [H3KP4me3]?
Answer: -TΔS°: 1.9 ± 0.1 kcal/mol; ΔG°: -9.1 ± 0.1 kcal/mol; ΔH°: -11.0 ± 0.1 kcal/mol
